Measurements: US20090062370A1, “Method for increasing the speed of recovery and/or the speed of wound healing of injured animals” (priority 2005, published 2009)

Experiments:
wounded animals = test: Feeding of wounded animals with supplemented feed (general description, daily intake titration); assay type: in vivo
Source text: Phytohormones and beta-glucans appeared to work in a wide range of concentrations for improving the speed of wound healing in animals. The optimal concentrations may vary between different species, however, the skilled person will know how to obtain an optimal concentration for a given species, for instance by titration of the desired compound into the animal feed and testing when this would have the optimal effect. The following may serve as guidance in this process.
A skilled person will appreciate that the amount of free IAA in the ready to use feed has to be adjusted in order to supply the animal with an effective amount of free IAA. In order to adjust the free IAA concentration in the feed so that a certain daily intake of free IAA is achieved, an estimate has to be made of the feed intake of an animal or animal group. A skilled person is aware of the feed intake of a (particular kind or group of) animal(s), typically, the feed intake per day is between 0.5 and 10% of the body weight of the animal, with occasional exceptions as high as 20%. Elderly animals tend to eat less and are considered to have a feed intake per day between 0.1 and 5%, typically of 1% of their body mass.

humans = conditions: single doses of 0.1 g/kg body weight; cited from earlier work
fibroblasts = conditions: cited from earlier work
[1] = test system: koi fish suffering from wounds as a result of parasites; test: Wound healing of koi fish in ponds fed fish feed according to the invention; assay type: in vivo; conditions: scale 1 (very slow recovery) to 5 (very fast recovery)
Source text: Four ponds of 40 cubic meters each, each containing 50 koi fish with an approximate total body weight of 50 kg were used to establish the effect of the fish feed according to the invention on wound healing. One pond (pond 1) served as a control were the fish were fed with control feed, the fish in the other ponds received a feed according to the invention as prepared in examples 6 to 8 above.
The fish in control pond were fed with 10 gram Cyprico White 3 mm floater feed per day, whereas the fish in the other ponds were fed with 10 gram of the feed as described in Example 2, 3 and 4 (Table 2). About 10% of all fish suffered from wounds as a result of parasites.
The veterinarian filled in a questionnaire on the recovery process of the fish, Table 3. Criterion was the speed of disappearance of the wounds. This criterion was scored on a scale ranging from 1 to 5 wherein 1 was very slow recovery and 5 very fast recovery. This criterion was scored 1, 2, 4, 7 and 21 days of feeding.

surgical wound = conditions: oral supplementation of 50 mg of zinc three times per day, as zinc sulfate; cited from earlier work

In the case of 1.3 and 1.6 beta glucans, the “optimal daily intake (optimal results / optimum between cost and benefit)” value (wounded animals; in feed) is reported as “around 5 mg/kglw/day”.
In the case of `O=C(O)Cc1c[nH]c2ccccc12` [free IAA, indole-3-acetic acid], the “toxicity of single doses” value (humans) is given as “non-toxic”, the “effect on the migration of fibroblasts in vitro” value (fibroblasts) is given as “had an effect” and the Wound healing score ([1]; 1 day of feeding) is given as 1. For the same compound, the Wound healing score ([1]; 2 days of feeding) was 1, the Wound healing score ([1]; 4 days of feeding) was 2 and the Wound healing score ([1]; 7 days of feeding) was 3. For the same compound, the Wound healing score ([1]; 21 days of feeding) was 4 and the “effect on recovery of wounded animals” value (wounded animals; feed with 0.4 mg/kglw/day) was “very effective”.
In the case of `C=C1C[C@]23C[C@@]1(O)CC[C@H]2[C@@]12C=C[C@H](O)[C@@](C)(C(=O)O1)[C@H]2[C@@H]3C(=O)O` [gibberellin, gibberellic acid], the “effect on the migration of fibroblasts in vitro” value (fibroblasts) is given as “not”.
In the case of `O=S(=O)([O-])[O-].[Zn+2]` [zinc, zinc sulfate], the “reduction of healing time of a surgical wound” value (surgical wound) is listed as 43%.
